A word on the IC50: it is the concentration that inhibits the measured activity by half. As a reminder, the inhibition is the change of the read-out against control, counted positive when it falls.

For experiment [1], the target named is T1, Protein deacetylase HDAC6 (Homo sapiens, UniProt Q9UBN7).
T1 sequence (Q9UBN7 whole entry): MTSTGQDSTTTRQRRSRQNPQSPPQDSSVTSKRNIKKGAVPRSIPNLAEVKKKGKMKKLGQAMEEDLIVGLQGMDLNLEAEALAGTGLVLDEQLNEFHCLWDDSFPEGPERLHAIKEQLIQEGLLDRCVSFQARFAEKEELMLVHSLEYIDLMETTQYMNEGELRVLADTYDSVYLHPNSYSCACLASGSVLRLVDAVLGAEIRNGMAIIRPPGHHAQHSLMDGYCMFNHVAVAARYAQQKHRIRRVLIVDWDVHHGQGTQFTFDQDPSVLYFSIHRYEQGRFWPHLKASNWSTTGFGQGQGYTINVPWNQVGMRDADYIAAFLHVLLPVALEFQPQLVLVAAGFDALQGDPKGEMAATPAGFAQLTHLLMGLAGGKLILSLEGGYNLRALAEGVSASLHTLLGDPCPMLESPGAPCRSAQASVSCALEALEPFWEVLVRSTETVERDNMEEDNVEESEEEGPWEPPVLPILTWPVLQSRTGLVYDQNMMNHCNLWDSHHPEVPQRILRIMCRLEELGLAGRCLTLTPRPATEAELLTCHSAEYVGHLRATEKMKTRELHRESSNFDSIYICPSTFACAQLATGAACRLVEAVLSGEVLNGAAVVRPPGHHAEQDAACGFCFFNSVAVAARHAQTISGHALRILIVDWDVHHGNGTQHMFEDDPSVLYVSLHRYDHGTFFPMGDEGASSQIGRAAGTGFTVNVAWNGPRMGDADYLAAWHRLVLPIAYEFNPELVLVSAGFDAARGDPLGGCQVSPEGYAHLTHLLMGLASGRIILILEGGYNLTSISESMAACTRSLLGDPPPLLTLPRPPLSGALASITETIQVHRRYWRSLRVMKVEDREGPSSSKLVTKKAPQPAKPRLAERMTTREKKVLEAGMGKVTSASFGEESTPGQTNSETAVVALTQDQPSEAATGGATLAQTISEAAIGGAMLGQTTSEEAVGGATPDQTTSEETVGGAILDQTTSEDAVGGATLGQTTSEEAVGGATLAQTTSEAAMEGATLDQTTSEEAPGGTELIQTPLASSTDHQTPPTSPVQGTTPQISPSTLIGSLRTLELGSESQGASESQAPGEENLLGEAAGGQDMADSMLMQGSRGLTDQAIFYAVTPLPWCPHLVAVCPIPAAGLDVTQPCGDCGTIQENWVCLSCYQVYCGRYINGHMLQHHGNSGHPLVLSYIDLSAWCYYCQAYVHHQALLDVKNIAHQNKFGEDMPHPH
Put plainly: Inhibition of HDAC6 (unknown origin) using Ac-peptide as substrate preincubated for 15 mins followed by substrate addition by fluorescence assay.

In experiment [2] the test system is HCT-116. Put plainly: cells. To be noted: Homo sapiens, HCT-116, 72 h.
For experiment [3], the target named is Histone deacetylase 1 (Homo sapiens, UniProt Q13547). Put plainly: Inhibition of HDAC1 (unknown origin) using Ac-peptide as substrate preincubated for 15 mins followed by substrate addition by fluorescence assay.
Experiment [4] has as its target T2, Lysine-specific histone demethylase 1A (Homo sapiens, UniProt O60341). Nature of the experiment: Inhibition of recombinant LSD1 (157 to 852 residues) (unknown origin) expressed in Escherichia coli BL21 (DE) using H3K4me2 as substrate by amplex red assay.
Experiment [5] has as its system MGC-803. Put plainly: cells. To be noted: Homo sapiens, MGC-803, 72 h.
In experiment [6] the target is Histone deacetylase 5 (Homo sapiens, UniProt Q9UQL6). Nature of the experiment: Inhibition of HDAC5 (unknown origin) using Ac-peptide as substrate preincubated for 15 mins followed by substrate addition by fluorescence assay.
The target of experiment [7] is T2, Lysine-specific histone demethylase 1A. Put plainly: Inhibition of recombinant LSD1 (157 to 852 residues) (unknown origin) expressed in Escherichia coli BL21 (DE) at 10 uM using H3K4me2 as substrate by amplex red assay relative to control.
In experiment [8] the test system is BGC-823. Put plainly: cells. To be noted: Homo sapiens, BGC-823, 72 h.
In experiment [9] the test system is MKN-1. Nature of the experiment: cells. To be noted: Homo sapiens, MKN-1, 72 h.
Experiment [10] concerns MKN-45. Put plainly: cells. To be noted: Homo sapiens, MKN-45, 72 h.
In experiment [11] the test system is NCI-N87. Put plainly: cells. To be noted: Homo sapiens, NCI-N87, 72 h.
Experiment [12] relates to SNU1. Nature of the experiment: cells. To be noted: Homo sapiens, SNU1, 72 h.
Experiment [13] concerns AGS. Put plainly: cells. To be noted: Homo sapiens, 72 h.

Histone deacetylase 1, sequence (Q13547 whole entry, the tested form may be a part): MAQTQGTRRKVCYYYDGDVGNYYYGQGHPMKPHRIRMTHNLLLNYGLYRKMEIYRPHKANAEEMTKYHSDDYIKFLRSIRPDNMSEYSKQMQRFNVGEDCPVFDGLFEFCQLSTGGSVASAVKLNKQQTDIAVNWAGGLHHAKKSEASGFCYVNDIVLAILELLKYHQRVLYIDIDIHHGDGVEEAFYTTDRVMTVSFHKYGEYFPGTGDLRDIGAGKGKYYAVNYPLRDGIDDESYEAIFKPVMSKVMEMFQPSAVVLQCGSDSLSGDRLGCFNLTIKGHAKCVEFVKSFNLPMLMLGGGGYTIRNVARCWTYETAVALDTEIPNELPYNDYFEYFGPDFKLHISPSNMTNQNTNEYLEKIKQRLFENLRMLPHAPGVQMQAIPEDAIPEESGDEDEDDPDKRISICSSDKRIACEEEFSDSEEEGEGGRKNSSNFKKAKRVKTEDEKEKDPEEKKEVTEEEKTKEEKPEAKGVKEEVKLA
Histone deacetylase 5, sequence (Q9UQL6 whole entry, the tested form may be a part): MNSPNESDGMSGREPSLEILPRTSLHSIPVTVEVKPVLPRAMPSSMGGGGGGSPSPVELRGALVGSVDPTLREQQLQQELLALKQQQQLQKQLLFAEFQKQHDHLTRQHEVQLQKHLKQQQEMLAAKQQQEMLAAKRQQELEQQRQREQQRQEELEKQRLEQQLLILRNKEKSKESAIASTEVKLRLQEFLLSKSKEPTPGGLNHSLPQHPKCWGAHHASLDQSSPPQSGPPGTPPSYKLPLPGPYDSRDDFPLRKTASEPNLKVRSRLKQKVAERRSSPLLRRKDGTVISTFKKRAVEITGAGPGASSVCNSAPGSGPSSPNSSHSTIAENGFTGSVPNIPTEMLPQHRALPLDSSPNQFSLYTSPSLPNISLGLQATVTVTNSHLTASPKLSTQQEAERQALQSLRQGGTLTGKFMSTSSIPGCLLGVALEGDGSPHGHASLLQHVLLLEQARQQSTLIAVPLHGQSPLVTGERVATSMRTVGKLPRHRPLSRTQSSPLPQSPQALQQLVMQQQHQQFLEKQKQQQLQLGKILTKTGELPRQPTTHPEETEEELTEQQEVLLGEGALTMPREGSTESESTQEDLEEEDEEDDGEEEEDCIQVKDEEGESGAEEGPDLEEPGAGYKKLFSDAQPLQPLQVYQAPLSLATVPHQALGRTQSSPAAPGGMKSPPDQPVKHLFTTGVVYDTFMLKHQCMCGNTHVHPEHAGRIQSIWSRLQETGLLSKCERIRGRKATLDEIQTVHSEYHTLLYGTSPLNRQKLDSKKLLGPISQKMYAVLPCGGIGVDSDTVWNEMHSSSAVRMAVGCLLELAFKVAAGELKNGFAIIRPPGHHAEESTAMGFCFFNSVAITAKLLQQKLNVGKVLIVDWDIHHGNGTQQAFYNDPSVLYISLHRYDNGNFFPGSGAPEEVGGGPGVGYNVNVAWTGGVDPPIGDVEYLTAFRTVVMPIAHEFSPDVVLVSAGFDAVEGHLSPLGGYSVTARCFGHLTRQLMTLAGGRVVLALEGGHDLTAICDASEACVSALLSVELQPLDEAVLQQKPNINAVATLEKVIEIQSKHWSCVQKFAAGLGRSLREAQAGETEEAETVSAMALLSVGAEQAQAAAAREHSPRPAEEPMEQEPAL

In the case of `O=C(NO)c1ccc(/C=C/c2ccnc(-c3cccc(O)c3)c2)cc1`, the 50% inhibitory concentration (IC50) in experiment [1] is 19 nM; in [2], 1610 nM; in [3], 290 nM; in experiment [4], 1830 nM; in experiment [5], 2100 nM; in experiment [6], over 10000 nM.
As to `O=C(NO)c1ccc(/C=C/c2ccnc(-c3ccc(C(F)(F)F)cc3)c2)cc1`, the 50% inhibitory concentration (IC50) in experiment [2] is over 10000 nM; in experiment [3], 4840 nM; in experiment [5] it was over 10000 nM. In addition, the inhibition in [7] was found to be 33%.
With `O=C(NO)c1ccc(/C=C/c2cccc(-c3cc(F)ccc3O)c2)cc1`, the half-inhibitory concentration (IC50) was 240 nM in experiment [1]; over 10000 nM in experiment [2]; 2120 nM in experiment [3]; 3510 nM in experiment [4]; over 10000 nM in experiment [5]; over 10000 nM in experiment [6].
For the molecule `O=C(NO)c1ccc(/C=C/c2ccnc(-c3ccsc3)c2)cc1`, the 50% inhibitory concentration (IC50) is 54 nM in [1]; 1910 nM in experiment [2]; 210 nM in experiment [3]; 2030 nM in [4]; 3680 nM in experiment [5]; over 10000 nM in experiment [6].
With `O=C(NO)c1ccc(/C=C/c2cccc(-c3ccccc3O)c2)cc1`, the IC50 in [1] is 180 nM; in experiment [2], 4230 nM; in [3], 930 nM; in experiment [4], 1950 nM; in experiment [5], 5990 nM; in [6], over 10000 nM.
On to `O=C(NO)c1ccc(/C=C/c2ccncc2)cc1`, for which the 50% inhibitory concentration (IC50) in experiment [1] was 130 nM; in [2] it was 3910 nM; in [3], 630 nM; in experiment [4], 850 nM; in experiment [5], 3930 nM; in experiment [6], over 10000 nM.
Turning to `N[C@H]1CC[C@H](N[C@@H]2C[C@H]2c2ccccc2)CC1`, the IC50 in [8], in experiment [9], in experiment [10], in experiment [11], in experiment [12] and in experiment [13] was over 50000 nM in each case.
For `O=C(NO)c1ccc(/C=C/c2ccnc(-c3cccnc3)c2)cc1`, the IC50 in experiment [1] is 14 nM; in [2] it was 5140 nM; in experiment [3], 580 nM; in [4], 1370 nM; in experiment [5], 4550 nM; in experiment [6], over 10000 nM.
For the molecule `COc1ccc(F)cc1-c1cncc(/C=C/c2ccc(C(=O)NO)cc2)c1`, the 50% inhibitory concentration (IC50) in experiment [1] was 93 nM; in [2], 3410 nM; in experiment [3], 670 nM; in experiment [4] it was 1600 nM; in experiment [5] it was 3360 nM; in experiment [6] it was over 10000 nM.
Consider `Cc1ccc(-c2cncc(/C=C/c3ccc(C(=O)NO)cc3)c2)c(F)c1`, for which the IC50 is 150 nM in [1]; 2990 nM in [2]; 1070 nM in [3]; 3060 nM in experiment [4]; 2240 nM in [5]; over 10000 nM in experiment [6].
In the case of `O=C(NO)c1ccc(/C=C/c2cc(-c3ccc(C(F)(F)F)cc3)ncc2F)cc1`, the 50% inhibitory concentration (IC50) in experiment [2] is over 10000 nM; in experiment [3], 2950 nM; in [5] it was over 10000 nM. The inhibition in experiment [7] came out at 5.6%.
`Cc1ccc(-c2cc(/C=C/c3ccc(C(=O)NO)cc3)c(F)cn2)cc1`: the IC50 is over 10000 nM in experiment [2], 1180 nM in [3] and over 10000 nM in [5]. For the same molecule, the inhibition in experiment [7] is 20.7%.
For the molecule `O=C(NO)c1ccc(/C=C/c2ccnc(-c3ccc(F)cc3)c2)cc1`, the concentration for half-maximal inhibition (IC50) in experiment [2] and in experiment [5] was over 10000 nM throughout. In addition, the inhibition in experiment [7] was 21.2%.
Take `O=C(/C=C/c1ccc(/C=C/c2ccnc(-c3ccccc3O)c2)cc1)NO`: the figures for the IC50 in experiment [2], in experiment [3] and in [5] were over 10000 nM, 470 nM and over 10000 nM, respectively. For the same molecule, the inhibition in experiment [7] came to 22.9%.
For the molecule `Cc1ccc(-c2cncc(/C=C/c3ccc(C(=O)NO)cc3)c2)cc1`, the concentration for half-maximal inhibition (IC50) was over 10000 nM in experiment [2], 43600 nM in experiment [3] and over 10000 nM in experiment [5]. Besides, the inhibition in experiment [7] is 29.8%.
With `O=C(NO)c1ccc(/C=C/c2cncc(-c3ccc(C(F)(F)F)cc3)c2)cc1`, the IC50 in [2] and in experiment [5] was over 10000 nM in each case. The inhibition in experiment [7] turned out to be 5.6%.
In the case of `O=C(NO)c1ccc(/C=C/c2ccnc(Br)c2)cc1`, the IC50 is 320 nM in experiment [1]; over 10000 nM in experiment [2]; 3660 nM in [3]; 1020 nM in [4]; over 10000 nM in [5]; over 10000 nM in experiment [6].
Consider `COc1ccc(-c2cc(/C=C/c3ccc(C(=O)NO)cc3)ccn2)cc1`, for which the half-maximal inhibitory concentration (IC50) in experiment [1] is 110 nM; in experiment [2], 3560 nM; in [3] it was 690 nM; in experiment [4] it was 1900 nM; in [5], 3510 nM; in experiment [6] it was over 10000 nM.
`O=C(NO)c1ccc(/C=C/c2ccnc(-c3cccc(CO)c3)c2)cc1`: the IC50 was 34 nM in experiment [1]; 1700 nM in experiment [2]; 280 nM in [3]; 1140 nM in experiment [4]; 1740 nM in [5]; over 10000 nM in experiment [6].
For the molecule `O=C(NO)c1ccc(/C=C/c2cccc(-c3cccc(O)c3)c2)cc1`, the IC50 was 200 nM in experiment [1]; over 10000 nM in experiment [2]; 1240 nM in [3]; 3650 nM in experiment [4]; 8820 nM in experiment [5]; over 10000 nM in experiment [6].
As to `O=C(NO)c1ccc(/C=C/c2cncc(-c3ccccc3O)c2)cc1`, the IC50 is 13 nM in [1]; 4680 nM in experiment [2]; 3370 nM in [3]; 510 nM in experiment [4]; 5460 nM in experiment [5]; over 10000 nM in [6].
As to `C/C(=N\NC(=O)c1cccc(S(=O)(=O)N2CCOCC2)c1)c1cc(Cl)ccc1O`, the IC50 in experiment [8] was 8080 nM; in experiment [9] it was 8980 nM; in experiment [10], 26700 nM; in experiment [11], 10500 nM; in experiment [12], 8030 nM; in experiment [13], 6190 nM.
Turning to `Cc1ccc(-c2cc(/C=C/c3ccc(C(=O)NO)cc3)c(F)cn2)c(F)c1`, the half-inhibitory concentration (IC50) was found to be 1670 nM in experiment [2], 880 nM in [3] and 2510 nM in experiment [5]. The inhibition in experiment [7] stood at 55.2%.
`COc1ccccc1-c1cc(/C=C/c2ccc(C(=O)NO)cc2)ccn1`: the IC50 in experiment [1] was 28 nM; in [2], 8440 nM; in [3], 1040 nM; in experiment [4], 1070 nM; in experiment [5], 6350 nM; in [6], over 10000 nM.
`O=C(NO)c1ccc(/C=C/c2ccnc(-c3cc(F)ccc3O)c2)cc1`: the IC50 in experiment [1] turned out to be 130 nM; in [2] it was 2040 nM; in [3], 1140 nM; in experiment [4] it was 2200 nM; in [5], 1920 nM; in experiment [6], 9340 nM.
In the case of `Cc1ccc(-c2cc(/C=C/c3ccc(C(=O)NO)cc3)ccn2)cc1`, the IC50 in experiment [1] is 150 nM; in experiment [2], 2390 nM; in experiment [3] it was 960 nM; in experiment [4] it was 2700 nM; in [5], 1910 nM; in experiment [6], over 10000 nM.
